The source of these data is patent US20090203697A1, “HETEROCYCLIC TYPE CINNAMIDE DERIVATIVE” (priority 2006, published 2009).

pIC50: −log10 of the molar value.

The test system of the test is Aβ42 production. Description: Quantification of Aβ peptide in neuronal culture from rat fetus brain (Aβ ELISA). The class given is cell-based. To be noted: 72 h; rat primary neuronal culture (cerebral cortex, embryonic day 18 Wistar rats); medium collected three days after addition of the compound; Aβx-42 ELISA; read-out: Aβ42 production reducing effect IC50. How it is done: Quantification of Aβ Peptide in Neuronal Culture from Rat Fetus Brain
(1) Rat Primary Neuronal Culture
Primary neuronal cultures were prepared from the cerebral cortex of embryonic day 18 Wistar rats (Charles River Japan, Yokohama, Japan). Specifically, the embryos were aseptically removed from pregnant rats under ether anesthesia. The brain was isolated from the embryo and immersed in an ice-cold L-15 medium (such as Invitrogen Corp. Cat #11415-064, Carlsbad, Calif., USA, or SIGMA L1518). The cerebral cortex was collected from the isolated brain under a stereoscopic microscope. The cerebral cortex fragments collected were enzymatically treated in an enzyme solution containing 0.25% trypsin (Invitrogen Corp. Cat #15050-065, Carlsbad, Calif., USA) and 0.01% DNase (Sigma D5025, St. Louis, Mo., USA) at 37° C. for 30 minutes to disperse the cells. Here, the enzymatic reaction was stopped by adding inactivated horse serum to the solution. The enzymatically treated solution was centrifuged at 1,500 rpm for five minutes to remove the supernatant. 5 to 10 ml of a medium was added to the resulting cell mass. Neurobasal medium (Invitrogen Corp. Cat #21103-049, Carlsbad, Calif., USA) supplemented with 2% B27 supplement (Invitrogen Corp. Cat #17504-044, Carlsbad, Calif., USA), 25 μM 2-mercaptoethanol (2-ME, WAKO Cat #139-06861, Osaka, Japan), 0.5 mM L-glutamine (Invitrogen Corp. Cat #25030-0817 Carlsbad, Calif., USA), and Antibiotics-Antimycotics (Invitrogen Corp. Cat #15240-062, Carlsbad, Calif., USA) was used as the medium (Neurobasal/B27/2-ME). However, the above Neurobasal medium not supplemented with 2-ME (Neurobasal/B27) was used for the assay. The cells were redispersed by mild pipetting of the cell mass to which the medium was added. The cell dispersion was filtered through a 40-μm nylon mesh (Cell Strainer, Cat #35-2340, Becton Dickinson Labware, Franklin Lakes, N.J., USA) to remove the remaining cell mass, and thus a neuronal cell suspension was obtained. The neuronal cell suspension was diluted with the medium and then plated in a volume of 100 μl/well at an initial cell density of 5×10^5 cells/cm^2 in a 96-well polystyrene culture plate pre-coated with poly-L or D-lysine (Falcon Cat #35-3075, Becton Dickinson Labware, Franklin Lakes, N.J., USA coated with poly-L-lysine using the method shown below, or BIOCOAT™ cell environments Poly-D-lysine cell ware 96-well plate, Cat #35-6461, Becton Dickinson Labware, Franklin Lakes, N.J., USA). Poly-L-lysine coating was carried out as follows. 100 μg/ml of a poly-L-lysine (SIGMA P2636, St. Louis, Mo., USA) solution was aseptically prepared with a 0.15 M borate buffer. (pH 8.5). […] of the solution was added to the 96-well polystyrene culture plate and incubated at room temperature for one or more hours or at 4° C. overnight or longer. The coated 96-well polystyrene culture plate was washed with sterile water four or more times, and then dried or rinsed with, for example, sterile PBS or medium, and used for cell plating. The plated cells were cultured in the culture plate at 37° C. in 5% CO2-95% air for one day. Then, the total amount of the medium was replaced with a fresh Neurobasal™/B27/2-ME medium, and then the cells were cultured for further three days.
The drug was added to the culture plate on Day 4 of culture as follows. The total amount of the medium was removed from the wells, and 180 μl/well of Neurobasal medium not containing 2-ME and containing 2% B-27 (Neurobasal/B27) was added thereto. A solution of the test compound in dimethyl sulfoxide (hereinafter abbreviated as DMSO) was diluted with Neurobasal/B27 to a concentration 10-fold higher than the final concentration. 20 μl/well of the dilution was added to and sufficiently mixed with the medium. The final DMSO concentration was 1% or less. Only DMSO was added to the control group.
The cells were cultured for three days after addition of the compound, and the total amount of the medium was collected. […]
On to `COc1cc(/C=C2\CCCN([C@H](c3ccc(F)cc3)[C@@H](C)O)C2=O)ccc1-n1cnc(C)n1` [Example 22, (E)-1-[(1R,2R)-1-(4-fluorophenyl)-2-hydroxypropyl]-3-{1-[3-methoxy-4-(3-methyl[1,2,4]triazol-1-yl)phenyl]methylidene}piperidin-2-one], for which the pIC50 is 7.30.
For the molecule `COc1cc(/C=C2\OC(C)(C)CN([C@H](c3cc(F)c(F)c(F)c3)[C@@H](C)O)C2=O)ccc1-n1cnc(C)n1` [Example 19, (Z)-4-[(1R,2R)-2-hydroxy-1-(3,4,5-trifluorophenyl)propyl]-2-[1-[3-methoxy-4-(3-methyl[1,2,4]triazol-1-yl)phenyl]methylidene]-6,6-dimethylmorpholin-3-one], the pIC50 is 6.82.
As for `COc1cc(/C=C2\O[C@@H](C)CN([C@H](c3ccc(F)cc3)[C@@H](C)O)C2=O)ccc1-n1cnc(C)n1` [Example 24, (6S)-(Z)-4-[(1R,2R)-1-(4-fluorophenyl)-2-hydroxypropyl]-2-[1-[3-methoxy-4-(3-methyl[1,2,4]triazol-1-yl)phenyl]methylidene]-6-methylmorpholin-3-one], the figure is 6.54; as for `COc1cc(/C=C2\CCCN([C@H](c3cc(F)c(F)c(F)c3)[C@@H](C)O)C2=O)ccc1-n1cnc(C)n1` [Example 21, (E)-1-[(1R,2R)-2-hydroxy-1-(3,4,5-trifluorophenyl)propyl]-3-[1-[3-methoxy-4-(3-methyl[1,2,4]triazol-1-yl)phenyl]methylidene]piperidin-2-one], 7.22; as for `COc1cc(/C=C2\CCCN([C@@H](C)c3cc(F)c(F)c(F)c3)C2=O)ccc1-n1cnc(C)n1` [Example 6, (E)-3-[1-[3-methoxy-4-(3-methyl[1,2,4]triazol-1-yl)phenyl]methylidene]-1-[(S)-1-(3,4,5-trifluorophenyl)ethyl]piperidin-2-one], 6.49.
On to `COc1cc(/C=C2\CC[C@H]3CC[C@@H](c4ccc(F)c(F)c4)N3C2=O)ccc1-n1cnc(C)n1` [Example 26, (E)-(3S,8aS)-3-(3,4-difluorophenyl)-6-[3-methoxy-4-(3-methyl[1,2,4]triazol-1-yl)benzylidene]hexahydroindolizin-5-one], for which the negative logarithm of the IC50 (pIC50) is 6.42.
As for `COc1cc(/C=C2\OCCN([C@H](c3cc(F)c(F)c(F)c3)[C@@H](C)O)C2=O)ccc1-n1cnc(C)n1` [Example 20, (Z)-4-[(1R,2R)-2-hydroxy-1-(3,4,5-trifluorophenyl)propyl]-2-[1-[3-methoxy-4-(3-methyl[1,2,4]triazol-1-yl)phenyl]methylidene]morpholin-3-one], the figure is 6.68; as for `COc1cc(/C=C2\CC(C)(C)CN([C@@H](C)c3ccc(F)cc3)C2=O)ccc1-n1cnc(C)n1` [Example 27, (E)-1-[(S)-1-(4-fluorophenyl)ethyl]-3-[1-[3-methoxy-4-(3-methyl[1,2,4]triazol-1-yl)phenyl]methylidene]-5,5-dimethylpiperidin-2-one], 6.57; as for `COc1cc(/C=C2\O[C@@H](C)CN(C(C)(C)c3ccc(F)cc3)C2=O)ccc1-n1cnc(C)n1` [Example 17, (Z)-(6S)-4-[1-(4-fluorophenyl)-1-methylethyl]-2-[1-[3-methoxy-4-(3-methyl[1,2,4]triazol-1-yl)phenyl]methylidene]-6-methylmorpholin-3-one], 6.74.
In the case of `COc1cc(/C=C2\CC[C@H]3CCC[C@@H](c4ccc(F)cc4)N3C2=O)ccc1-n1cnc(C)n1` [Example 28, (E)-(6S,9aR)-6-(4-fluorophenyl)-3-{1-[3-methoxy-4-(3-methyl[1,2,4]triazol-1-yl)phenyl]methylidene}octahydroquinolizin-4-one], the pIC50 is 6.36.
As for `COc1cc(/C=C2\OC(C)(C)CN([C@H](c3ccc(F)cc3)[C@@H](C)O)C2=O)ccc1-n1cnc(C)n1` [Example 23, (Z)-4-[(1R,2R)-1-(4-fluorophenyl)-2-hydroxypropyl]-2-[1-[3-methoxy-4-(3-methyl[1,2,4]triazol-1-yl)phenyl]methylidene]-6,6-dimethylmorpholin-3-one], the figure is 6.40; as for `COc1cc(/C=C2\O[C@@H](C)CN([C@H](c3cc(F)c(F)c(F)c3)[C@@H](C)O)C2=O)ccc1-n1cnc(C)n1` [Example 18, (Z)-(6S)-4-[(1R,2R)-2-hydroxy-1-(3,4,5-trifluorophenyl)propyl]-2-[1-[3-methoxy-4-(3-methyl[1,2,4]triazol-1-yl)phenyl]methylidene]-6-methylmorpholin-3-one], 6.80.
